Measured values: patent publication US20180305329A1, “XANTHINE COMPOUND AND USE THEREOF” (SUMITOMO CHEMICAL COMPANY, LIMITED, priority 2015, published 2018)

Columns and labels:
[1] = Spectroscopic properties: quantum efficiency (QE-1100); type: physicochemical; details: fluorescence
Description: Quantum Efficiency (QE): QE-1100 (Otsuka Electronics Co., Ltd.)

[2] = system: human and rat CYP3A; experiment: Molecular species selectivity evaluation, overall conclusion; type: in vitro ADME; details: conclusion from Tables 2 and 3
Description: (§1) A 100 mM phosphate buffer solution (pH 7.4) containing 3 μM of the compound (2) synthesized according to Example 2, 1 mM of NADPH (Wako Pure Chemical Industries, Ltd.) and 0.1% of DMSO was prepared. In each of the wells of a 96-well plate, 2 μL of each microsome from recombinant insect cell expressing different type of molecular species of CYP (CYP 2 pmol, BD Supersomes™, Nippon BD) was placed, followed by addition of 198 μL of the above-described phosphate buffer solution to start the reaction, which was incubated at 37° C. for 20 minutes. The reaction was stopped by adding 100 μL of acetonitrile (Nacalai Tesque, Inc.), and the fluorescence intensity of the obtained reaction solution was measured at the fluorescence wavelength of 520 nm with an excitation wavelength of 482 nm. A calibration curve was prepared by using the 0 μM, 0.01 μM, 0.05 μM, 0.1 μM, 0.50 μM and 1 μM solutions (100 mM phosphate buffer/acetonitrile=2/1) of the compound (1).

[3] = target: T1, human CYP3A4 (Homo sapiens, UniProt P08684); experiment: Metabolism test with recombinant CYP microsomes (molecular species selectivity); type: in vitro ADME; details: human CYP3A4 Supersomes, CYP 2 pmol; 3 μM compound (2); 1 mM NADPH; pH 7.4; 37° C., 20 minutes; mean ± SD
T1 construct: purchased Nippon BD (BD Supersomes); host or cells: recombinant insect cells (microsomes)
Description: as §1

[4] = target: T2, rat CYP3A1 (Rattus norvegicus, UniProt P04800); experiment: as above; type: in vitro ADME; details: rat CYP3A1 Supersomes, CYP 2 pmol; 3 μM compound (2); 1 mM NADPH; pH 7.4; 37° C., 20 minutes; mean ± SD
T2 construct: purchased Nippon BD (BD Supersomes); host or cells: recombinant insect cells (microsomes)
T2 sequence (P04800 1-504): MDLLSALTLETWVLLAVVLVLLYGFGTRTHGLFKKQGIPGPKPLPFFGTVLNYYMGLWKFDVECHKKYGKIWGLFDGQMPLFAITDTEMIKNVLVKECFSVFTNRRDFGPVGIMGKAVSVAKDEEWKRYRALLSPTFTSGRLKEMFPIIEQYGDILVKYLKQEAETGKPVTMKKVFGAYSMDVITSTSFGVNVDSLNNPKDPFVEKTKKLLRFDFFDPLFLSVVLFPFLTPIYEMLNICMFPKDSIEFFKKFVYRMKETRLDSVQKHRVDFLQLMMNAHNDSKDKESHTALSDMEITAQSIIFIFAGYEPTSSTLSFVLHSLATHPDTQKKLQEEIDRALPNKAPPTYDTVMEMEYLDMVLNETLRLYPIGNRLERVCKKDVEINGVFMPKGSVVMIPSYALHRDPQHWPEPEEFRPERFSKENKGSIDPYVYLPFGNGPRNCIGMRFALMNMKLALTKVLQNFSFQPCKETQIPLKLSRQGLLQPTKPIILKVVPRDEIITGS
Description: as §1

[5] = target: T3, rat CYP2D1 (Rattus norvegicus, UniProt P10633); experiment: as above; type: in vitro ADME; details: rat CYP2D1 Supersomes, CYP 2 pmol; 3 μM compound (2); 1 mM NADPH; pH 7.4; 37° C., 20 minutes; mean ± SD
T3 construct: purchased Nippon BD (BD Supersomes); host or cells: recombinant insect cells (microsomes)
T3 sequence (P10633 1-504): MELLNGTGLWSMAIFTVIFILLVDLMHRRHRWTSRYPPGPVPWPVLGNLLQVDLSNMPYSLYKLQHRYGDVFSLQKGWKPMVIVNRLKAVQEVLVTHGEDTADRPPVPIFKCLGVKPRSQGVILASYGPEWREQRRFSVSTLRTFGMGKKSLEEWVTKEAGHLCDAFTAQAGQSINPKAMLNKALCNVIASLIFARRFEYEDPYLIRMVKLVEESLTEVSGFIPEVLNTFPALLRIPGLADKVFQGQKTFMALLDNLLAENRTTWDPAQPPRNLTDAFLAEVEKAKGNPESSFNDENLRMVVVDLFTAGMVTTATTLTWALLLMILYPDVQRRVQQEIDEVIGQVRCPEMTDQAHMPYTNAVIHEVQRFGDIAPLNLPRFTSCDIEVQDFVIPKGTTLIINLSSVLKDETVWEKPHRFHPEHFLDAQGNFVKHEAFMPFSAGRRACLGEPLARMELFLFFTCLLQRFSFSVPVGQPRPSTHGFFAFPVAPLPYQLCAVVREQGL
Description: as §1

[6] = target: T4, rat CYP3A2 (Rattus norvegicus, UniProt P05183); experiment: as above; type: in vitro ADME; details: rat CYP3A2 Supersomes, CYP 2 pmol; 3 μM compound (2); 1 mM NADPH; pH 7.4; 37° C., 20 minutes; mean ± SD
T4 construct: purchased Nippon BD (BD Supersomes); host or cells: recombinant insect cells (microsomes)
T4 sequence (P05183 1-504): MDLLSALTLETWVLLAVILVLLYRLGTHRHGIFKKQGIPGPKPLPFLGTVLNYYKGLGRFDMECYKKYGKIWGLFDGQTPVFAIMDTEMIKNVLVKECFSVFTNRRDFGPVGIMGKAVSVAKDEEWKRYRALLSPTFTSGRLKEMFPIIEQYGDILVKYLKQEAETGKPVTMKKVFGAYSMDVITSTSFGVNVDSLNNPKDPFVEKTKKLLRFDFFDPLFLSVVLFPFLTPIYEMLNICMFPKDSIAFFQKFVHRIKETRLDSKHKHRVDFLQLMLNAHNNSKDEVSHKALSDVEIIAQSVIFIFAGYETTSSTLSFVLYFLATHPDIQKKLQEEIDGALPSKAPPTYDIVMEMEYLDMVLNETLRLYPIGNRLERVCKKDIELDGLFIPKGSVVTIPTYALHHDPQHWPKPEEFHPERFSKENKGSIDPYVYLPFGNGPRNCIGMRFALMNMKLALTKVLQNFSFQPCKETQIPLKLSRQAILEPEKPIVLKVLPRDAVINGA
Description: as §1

[7] = target: T5, human CYP2E1 (Homo sapiens, UniProt P05181); experiment: as above; type: in vitro ADME; details: human CYP2E1 Supersomes, CYP 2 pmol; 3 μM compound (2); 1 mM NADPH; pH 7.4; 37° C., 20 minutes; mean ± SD
T5 construct: purchased Nippon BD (BD Supersomes); host or cells: recombinant insect cells (microsomes)
Description: as §1

T5 sequence (P05181 whole entry): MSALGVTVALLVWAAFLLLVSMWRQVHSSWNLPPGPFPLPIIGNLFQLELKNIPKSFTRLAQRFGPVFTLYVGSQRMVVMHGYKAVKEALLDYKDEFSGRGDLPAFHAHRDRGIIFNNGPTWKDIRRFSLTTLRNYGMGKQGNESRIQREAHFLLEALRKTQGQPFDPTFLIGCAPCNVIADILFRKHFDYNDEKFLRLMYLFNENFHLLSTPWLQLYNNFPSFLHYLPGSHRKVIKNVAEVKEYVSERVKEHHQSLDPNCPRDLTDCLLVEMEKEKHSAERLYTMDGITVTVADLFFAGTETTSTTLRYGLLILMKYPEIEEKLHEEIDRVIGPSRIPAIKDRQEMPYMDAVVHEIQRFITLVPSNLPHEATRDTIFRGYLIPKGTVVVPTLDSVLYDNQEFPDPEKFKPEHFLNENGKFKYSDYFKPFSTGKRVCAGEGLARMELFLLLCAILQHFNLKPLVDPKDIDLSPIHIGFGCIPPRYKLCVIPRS
T1 sequence (P08684 whole entry): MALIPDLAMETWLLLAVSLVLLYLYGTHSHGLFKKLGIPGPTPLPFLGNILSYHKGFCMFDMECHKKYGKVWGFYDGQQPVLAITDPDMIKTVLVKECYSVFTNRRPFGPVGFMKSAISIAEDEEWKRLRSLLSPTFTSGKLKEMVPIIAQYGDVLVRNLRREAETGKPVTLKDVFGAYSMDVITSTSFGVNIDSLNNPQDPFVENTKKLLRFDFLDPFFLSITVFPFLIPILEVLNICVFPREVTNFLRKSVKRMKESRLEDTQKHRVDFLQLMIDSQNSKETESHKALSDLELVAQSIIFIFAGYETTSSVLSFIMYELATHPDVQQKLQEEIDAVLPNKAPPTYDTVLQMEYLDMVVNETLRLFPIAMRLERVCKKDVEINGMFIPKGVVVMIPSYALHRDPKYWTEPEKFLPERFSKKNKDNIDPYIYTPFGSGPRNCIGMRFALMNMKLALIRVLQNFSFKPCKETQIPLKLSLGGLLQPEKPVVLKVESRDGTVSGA

Quantum Efficiency [1]	amount of the compound (1) produced by reacting the compound (2) with CYP [3]	amount of the compound (1) produced by reacting the compound (2) with CYP [4]	amount of the compound (1) produced by reacting the compound (2) with CYP [5]	amount of the compound (1) produced by reacting the compound (2) with CYP [6]	amount of the compound (1) produced by reacting the compound (2) with CYP [7]	Compound	CYP molecular species selectivity as substrate [2]
20.6%	2.4913 ± 0.0497 (3) pmol/min/mg protein	0.2190 ± 0.0095 (3) pmol/min/mg protein	0.0151 ± 0.0081 (3) pmol/min/mg protein	0.0912 ± 0.0105 (3) pmol/min/mg protein	0.0038 ± 0.0052 (3) pmol/min/mg protein	COc1ccc(-c2c3ccc(=O)cc-3oc3cc(OCc4cc(C(F)(F)F)ccc4C(F)(F)F)ccc23)c(C)c1 [Compound (2), 9-(4-methoxy-2-methylphenyl)-6-bis(2,5-trifluoromethyl)benzyloxy-3H-xanthen-3-one]	substrate specific to human and rat CYP3A
85.3%						COc1ccc(-c2c3ccc(=O)cc-3oc3cc(O)ccc23)c(C)c1 [Compound (1), 6-hydroxy-9-(4-methoxy-2-methylphenyl)-3H-xanthen-3-one]	
